From PubChem BioAssay (NCI)
Where “and” joins values, the source holds several entries; their conditions need not be identical. Identical values can stand only once.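 Briefly, cells in 96-well plates were exposed to five compound concentrations for 48 h, and endpoints were estimated by linear interpolation. GI50 is the concentration that inhibits growth by half. The concentration for full growth arrest is given as TGI.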

Key:
Experiment in all cases: inhibition of tumour cell growth, NCI panel, 48 h
SF-268 CNS = tested on: SF-268 CNS
U251 CNS = tested on: U251 CNS
M14 melanoma = tested on: M14 melanoma
DMS 114 small cell lung = tested on: DMS 114 small cell lung
DLD-1 colon = tested on: DLD-1 colon
HOP-92 NSCLC = tested on: HOP-92 NSCLC
EKVX NSCLC = tested on: EKVX NSCLC
SW-620 colon = tested on: SW-620 colon
SR leukemia = tested on: SR leukemia
HS 578T breast = tested on: HS 578T breast

Row | Compound | TGI (SF-268 CNS) | TGI (U251 CNS) | TGI (M14 melanoma) | TGI (DMS 114 small cell lung) | TGI (DLD-1 colon) | TGI (HOP-92 NSCLC) | TGI (EKVX NSCLC) | TGI (SW-620 colon) | TGI (SR leukemia) | GI50 (SF-268 CNS) | GI50 (U251 CNS) | GI50 (DMS 114 small cell lung) | GI50 (DLD-1 colon) | GI50 (HOP-92 NSCLC) | GI50 (EKVX NSCLC) | GI50 (SW-620 colon) | TGI (HS 578T breast) | GI50 (SR leukemia) | GI50 (HS 578T breast) | GI50 (M14 melanoma)
1 | CC(=O)CCC1(c2ccccc2)OC(=O)C(C#N)=C1c1ccccc1 (stereo not given) | > 100 µM | > 100 µM | > 100 µM | > 100 µM | > 100 µM | > 100 µM | > 100 µM | > 100 µM | – | – | – | – | – | – | – | – | – | – | – | –
2 | COC(=O)CC1(O)C(=O)OCc2c1cc1n(c2=O)Cc2c-1nc1ccccc1c2OC (stereo not given) | > 34 µM | 2.11 µM | 32.2 µM | > 33.1 µM | > 100 µM | 92.2 µM | > 100 µM | > 100 µM | < 0.0136 µM | – | – | – | – | – | – | – | – | – | – | –
3 | CC1NOC(=O)C1N=Nc1cccc(Cl)c1 (stereo not given) | 89.9 µM | 60.2 µM | > 100 µM | 61.7 µM | > 100 µM | > 100 µM | > 100 µM | 23.4 µM | 71.5 µM | – | – | – | – | – | – | – | – | – | – | –
4 | Nc1nc(Cl)c2ncn(CCCC(c3ccccc3)P(=O)(O)O)c2n1 (stereo not given) | > 100 µM | > 100 µM | > 100 µM | > 100 µM | > 100 µM | > 100 µM | – | > 100 µM | > 100 µM | – | – | – | – | – | – | – | – | – | – | –
5 | O=P(CN1CCOCC1)(c1ccccc1)c1ccccc1 | > 100 µM | > 100 µM | > 100 µM | > 100 µM | – | > 100 µM | > 100 µM | > 100 µM | – | – | – | – | – | – | – | – | – | – | – | –
6 | Cc1c(Cl)ccc2c1NC(=O)C2(O)CC(=O)c1ccc(Cl)cc1 (stereo not given) | > 100 µM | > 100 µM | > 100 µM | 37.1 µM | > 100 µM | > 100 µM | > 100 µM | > 53.1 µM | > 57.1 µM | – | – | – | – | – | – | – | – | – | – | –
7 | CC1[C@@]2(CCC(C)(C)O2)O[C@@H]2C=C3C4CCC5Cc6nc7c(nc6C[C@@]5(C)C4C[C@H](O)[C@@]3(C)[C@]12O)CC1CCC2C3=C[C@H]4O[C@@]5(O[C@@](C)(CO)C[C@@H]5O)C(C)[C@@]4(O)[C@]3(C)[C@@H](O)CC2[C@]1(C)C7 (stereo not given in full) | 0.904 µM and 0.125 µM | – | 0.122 µM | – | 1.11 µM | – | 0.875 µM and 0.462 µM | 0.499 µM and 0.0508 µM | – | 0.00464 µM | 0.00043 µM | 0.000805 µM | 0.0805 µM | 0.00228 µM | 0.00521 µM | 0.00938 µM | – | – | – | –
8 | O=C(N/C(=C\c1ccc([N+](=O)[O-])cc1)c1nc2ccccc2s1)c1ccccc1 | 56.2 µM | > 100 µM | 81.8 µM | 68.4 µM | 58.7 µM | 68.8 µM | – | 69 µM | – | – | – | – | – | – | – | – | – | – | – | –
9 | COc1ccc(/C=C/C(=O)c2c(-c3ccccc3)nn(C)c(=O)c2N2CC2C)cc1 (stereo not given) | > 100 µM | 85.6 µM | > 100 µM | 90.6 µM | > 100 µM | > 100 µM | 94.3 µM | 88.2 µM | – | – | – | – | – | – | – | – | – | – | – | –
10 | N#C/C(=C\c1ccc(O)cc1)C(N)=O | > 100 µM | > 100 µM | > 100 µM | > 100 µM | > 100 µM | > 100 µM | 97.8 µM and > 100 µM | > 100 µM | – | – | – | – | – | – | – | – | – | – | – | –
11 | COC(=O)C1=NC(=S)NC(c2ccccc2)C1c1nc2ccccc2o1 (stereo not given) | > 50 µM | > 50 µM | > 50 µM | > 50 µM | > 50 µM | > 50 µM | > 50 µM | > 50 µM | > 50 µM | – | – | – | – | – | – | – | – | – | – | –
12 | Cc1cc(Cl)ccc1N=C1NC(=O)C(CC(=O)Nc2cccc(Cl)c2)S1 (stereo not given) | > 100 µM | > 100 µM | > 100 µM | > 100 µM | > 100 µM | 69.8 µM | > 100 µM | > 100 µM | – | – | – | – | – | – | – | – | – | – | – | –
13 | CCCC1C[C@H]2CCCCN2[C@H]2CCCN12 (stereo not given in full) | > 100 µM | > 68 µM | > 100 µM | > 86.9 µM | > 83.6 µM | > 100 µM | > 100 µM | > 58.4 µM | > 64 µM | – | – | – | – | – | – | – | – | – | – | –
14 | CC(C)(C)N/N=C(/Cc1nc2c3c(ccc2[nH]c1=O)C(=O)c1ccccc1C3=O)C(=O)NC1=C(Cl)C(=O)c2ccccc2C1=O | 43.5 µM | > 100 µM | > 100 µM | – | – | > 100 µM | > 100 µM | > 100 µM | > 100 µM | – | – | – | – | – | – | – | 79.8 µM | – | – | –
15 | Cc1ccc(-c2nc(NCCOCCOCCN)nc(N3CCN(c4ccccn4)CC3)n2)cc1 | 29.9 µM | 33 µM | 11.9 µM | – | – | 19 µM | 33 µM | 29.2 µM | 20.7 µM | 14.3 µM | 14.2 µM | – | – | 4.15 µM | 15.8 µM | 11 µM | 42.3 µM | 5.5 µM | 15.9 µM | 5.52 µM
16 | C[N+](C)(C)CC1CCC(C[N+](C)(C)C)C1=NO (stereo not given) | > 100 µM | > 100 µM | > 100 µM | – | > 100 µM | – | > 100 µM | > 100 µM | > 100 µM | – | – | – | – | – | – | – | – | – | – | –
17 | CCn1c(-c2nonc2N)nc2ccccc21 | > 25 µM | > 25 µM | > 25 µM | – | – | > 25 µM | > 25 µM | > 25 µM | > 25 µM | > 25 µM | > 25 µM | – | – | 17 µM | 20.9 µM | > 25 µM | > 25 µM | > 25 µM | > 22.3 µM | > 25 µM
18 | Clc1ccc2c(NCCNc3nc(N4CCOCC4)nc4ccccc34)ccnc2c1 | 13 µM | 3.4 µM | 3.89 µM | – | – | 3.2 µM | 16.4 µM | 10.8 µM | 2.03 µM | 3.53 µM | 1.71 µM | – | – | 1.43 µM | 4 µM | 2.97 µM | 7.71 µM | 0.313 µM | 2.58 µM | 1.94 µM
19 | COc1cc(C2CC(c3ccccc3)=NN2C=O)ccc1Oc1ccnc2cc(Cl)ccc12 (stereo not given) | > 100 µM | > 100 µM | > 100 µM | – | – | 13.6 µM | > 100 µM | > 100 µM | > 100 µM | 23.2 µM | 19.8 µM | – | – | 1.5 µM | 3.67 µM | > 100 µM | > 100 µM | > 100 µM | 5.6 µM | 5.83 µM
20 | COC(=O)C(=O)C(C(=O)C(=O)Nc1ccc([N+](=O)[O-])cc1)c1nc2ccccc2[nH]c1=O (stereo not given) | > 100 µM | > 100 µM | > 100 µM | > 100 µM | > 100 µM | > 100 µM | – | > 100 µM | – | – | – | – | – | – | – | – | – | – | – | –
21 | Cc1cc(N(CCC#N)CCC#N)ccc1/C=C(\NC(=O)/C=C/c1ccccc1)C(=O)Nc1ccccc1Cl | > 100 µM | > 100 µM | > 100 µM | > 100 µM | > 100 µM | 94.5 µM | > 100 µM | > 100 µM | – | – | – | – | – | – | – | – | – | – | – | –
